{"source": "paper PMC8333425", "about": "“Discovery of a dual Ras and ARF6 inhibitor from a GPCR endocytosis screen” (Nature Communications, 2021)", "assay_in_all_cases": "KINOMEscan kinase binding assay", "key": {"[1]": {"target": "T1, 384 kinases from the human genome (Homo sapiens, UniProt Q9UKI8)", "T1 construct": "purchased Eurofin/DiscoverX", "T1 sequence (Q9UKI8 whole entry)": "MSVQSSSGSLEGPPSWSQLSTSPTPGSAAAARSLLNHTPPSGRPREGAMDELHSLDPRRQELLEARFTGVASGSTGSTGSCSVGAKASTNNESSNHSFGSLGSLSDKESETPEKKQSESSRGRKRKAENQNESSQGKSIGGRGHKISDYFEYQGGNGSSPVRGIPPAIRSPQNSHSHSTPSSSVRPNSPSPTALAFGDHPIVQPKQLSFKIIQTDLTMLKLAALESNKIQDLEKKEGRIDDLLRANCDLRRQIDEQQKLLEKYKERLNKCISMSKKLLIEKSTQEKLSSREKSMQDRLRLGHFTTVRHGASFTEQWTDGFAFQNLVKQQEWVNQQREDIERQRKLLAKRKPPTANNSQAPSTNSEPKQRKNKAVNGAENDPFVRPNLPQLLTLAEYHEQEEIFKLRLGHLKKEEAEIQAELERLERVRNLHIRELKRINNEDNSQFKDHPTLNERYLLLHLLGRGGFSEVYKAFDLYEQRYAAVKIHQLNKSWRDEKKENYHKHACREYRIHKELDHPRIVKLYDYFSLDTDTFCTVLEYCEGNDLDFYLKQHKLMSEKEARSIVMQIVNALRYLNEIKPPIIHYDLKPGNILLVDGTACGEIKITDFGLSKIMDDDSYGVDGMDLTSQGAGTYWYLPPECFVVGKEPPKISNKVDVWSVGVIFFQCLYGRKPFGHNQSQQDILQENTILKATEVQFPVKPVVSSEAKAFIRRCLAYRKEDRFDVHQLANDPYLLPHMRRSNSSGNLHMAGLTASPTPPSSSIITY", "details": "kinase TLK1 (Entrez TLK1)", "in_short": "(§1)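 A panel of 384 human kinases was profiled by KINOMEscan binding in the presence of 10 µM compound. Kinase–ligand binding was given as percent of DMSO control, averaged from duplicates in a single run, with an S(10) selectivity score.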"}, "[2]": {"target": "T2, 384 kinases from the human genome (Homo sapiens, UniProt Q6XUX3)", "T2 construct": "purchased Eurofin/DiscoverX", "details": "kinase RIPK5 (Entrez DSTYK)", "in_short": "as §1"}, "[3]": {"target": "T3, 384 kinases from the human genome (Homo sapiens, UniProt Q13188)", "T3 construct": "purchased Eurofin/DiscoverX", "details": "kinase MST2 (Entrez STK3)", "in_short": "as §1"}, "[4]": {"target": "T4, 384 kinases from the human genome (Homo sapiens, UniProt Q13163)", "T4 construct": "purchased Eurofin/DiscoverX", "details": "kinase MEK5 (Entrez MAP2K5)", "in_short": "as §1"}, "[5]": {"target": "T5, 384 kinases from the human genome (Homo sapiens, UniProt O75385)", "T5 construct": "purchased Eurofin/DiscoverX", "details": "kinase ULK1 (Entrez ULK1)", "in_short": "as §1"}, "[6]": {"target": "T6, 384 kinases from the human genome (Homo sapiens, UniProt P10721)", "T6 construct": "purchased Eurofin/DiscoverX", "T6 sequence (P10721 26-976)": "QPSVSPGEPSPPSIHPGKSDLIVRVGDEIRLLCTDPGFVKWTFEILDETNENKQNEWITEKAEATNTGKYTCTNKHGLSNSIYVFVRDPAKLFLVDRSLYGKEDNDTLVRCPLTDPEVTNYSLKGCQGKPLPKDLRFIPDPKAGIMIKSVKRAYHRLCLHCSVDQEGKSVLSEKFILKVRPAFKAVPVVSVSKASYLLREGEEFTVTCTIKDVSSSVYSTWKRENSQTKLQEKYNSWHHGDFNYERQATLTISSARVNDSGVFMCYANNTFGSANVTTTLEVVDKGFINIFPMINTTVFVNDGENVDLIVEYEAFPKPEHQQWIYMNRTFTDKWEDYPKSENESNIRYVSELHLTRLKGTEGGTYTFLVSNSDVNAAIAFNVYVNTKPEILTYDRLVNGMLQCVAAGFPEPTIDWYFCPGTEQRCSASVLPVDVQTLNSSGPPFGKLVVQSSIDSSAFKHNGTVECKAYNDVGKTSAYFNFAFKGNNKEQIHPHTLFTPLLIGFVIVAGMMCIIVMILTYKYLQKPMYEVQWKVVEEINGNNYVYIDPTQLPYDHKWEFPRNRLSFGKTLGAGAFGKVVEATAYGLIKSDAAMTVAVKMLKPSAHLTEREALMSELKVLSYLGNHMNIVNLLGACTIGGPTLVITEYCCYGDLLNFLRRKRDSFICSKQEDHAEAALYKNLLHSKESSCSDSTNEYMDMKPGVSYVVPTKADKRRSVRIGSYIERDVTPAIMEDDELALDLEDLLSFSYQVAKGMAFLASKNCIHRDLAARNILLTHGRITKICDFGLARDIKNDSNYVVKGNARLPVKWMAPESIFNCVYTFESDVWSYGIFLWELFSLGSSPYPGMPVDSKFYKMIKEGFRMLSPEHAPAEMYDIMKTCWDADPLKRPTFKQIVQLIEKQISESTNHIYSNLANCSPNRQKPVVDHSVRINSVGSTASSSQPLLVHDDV", "in_short": "as §1"}, "[7]": {"target": "T7, 384 kinases from the human genome (Homo sapiens, UniProt Q07912)", "T7 construct": "purchased Eurofin/DiscoverX", "T7 sequence (Q07912 whole entry)": "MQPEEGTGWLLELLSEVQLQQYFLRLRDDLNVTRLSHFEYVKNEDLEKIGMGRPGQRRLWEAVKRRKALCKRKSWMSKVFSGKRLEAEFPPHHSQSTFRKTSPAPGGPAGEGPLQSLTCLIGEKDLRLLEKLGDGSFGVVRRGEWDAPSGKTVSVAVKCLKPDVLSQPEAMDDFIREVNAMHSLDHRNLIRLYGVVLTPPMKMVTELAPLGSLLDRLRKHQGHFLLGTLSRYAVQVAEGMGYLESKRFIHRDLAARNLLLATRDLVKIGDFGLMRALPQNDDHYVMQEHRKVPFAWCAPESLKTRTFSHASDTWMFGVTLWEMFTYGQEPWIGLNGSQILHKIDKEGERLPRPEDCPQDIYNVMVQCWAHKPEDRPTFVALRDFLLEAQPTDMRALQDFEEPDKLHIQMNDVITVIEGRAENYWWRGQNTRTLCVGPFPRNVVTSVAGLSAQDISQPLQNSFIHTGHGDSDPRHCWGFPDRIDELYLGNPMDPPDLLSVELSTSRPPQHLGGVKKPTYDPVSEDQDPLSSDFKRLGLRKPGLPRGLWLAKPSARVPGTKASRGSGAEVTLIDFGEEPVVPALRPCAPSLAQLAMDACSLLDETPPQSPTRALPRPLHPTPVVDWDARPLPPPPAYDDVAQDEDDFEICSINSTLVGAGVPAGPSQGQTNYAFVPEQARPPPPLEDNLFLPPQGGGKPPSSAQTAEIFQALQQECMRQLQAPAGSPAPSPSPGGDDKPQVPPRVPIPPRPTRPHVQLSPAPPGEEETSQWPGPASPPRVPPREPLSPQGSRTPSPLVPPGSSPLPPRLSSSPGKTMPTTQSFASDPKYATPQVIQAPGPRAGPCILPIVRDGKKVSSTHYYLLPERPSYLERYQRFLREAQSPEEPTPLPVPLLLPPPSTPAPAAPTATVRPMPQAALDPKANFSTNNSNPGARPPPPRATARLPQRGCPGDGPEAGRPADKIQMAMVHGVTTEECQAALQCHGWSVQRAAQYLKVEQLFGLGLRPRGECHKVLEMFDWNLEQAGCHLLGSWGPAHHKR", "details": "kinase TNK2 (Entrez TNK2)", "in_short": "as §1"}, "[8]": {"target": "T8, 384 kinases from the human genome (Homo sapiens, UniProt Q14012)", "T8 construct": "purchased Eurofin/DiscoverX", "details": "kinase CAMK1 (Entrez CAMK1)", "in_short": "as §1"}, "[9]": {"target": "T9, 384 kinases from the human genome (Homo sapiens, UniProt P07948)", "T9 construct": "purchased Eurofin/DiscoverX", "details": "kinase LYN (Entrez LYN)", "in_short": "as §1"}, "[10]": {"target": "T10, 384 kinases from the human genome (Homo sapiens, UniProt Q12851)", "T10 construct": "purchased Eurofin/DiscoverX", "details": "kinase MAP4K2 (Entrez MAP4K2)", "in_short": "as §1"}, "[11]": {"target": "T11, 384 kinases from the human genome (Homo sapiens, UniProt P23443)", "T11 construct": "purchased Eurofin/DiscoverX", "details": "kinase S6K1 (Entrez RPS6KB1)", "in_short": "as §1"}, "[12]": {"target": "T12, 384 kinases from the human genome (Homo sapiens, UniProt Q9Y2H1)", "T12 construct": "purchased Eurofin/DiscoverX", "details": "kinase NDR2 (Entrez STK38L)", "in_short": "as §1"}, "[13]": {"target": "T13, 384 kinases from the human genome (Homo sapiens, UniProt Q02779)", "T13 construct": "purchased Eurofin/DiscoverX", "details": "kinase MLK2 (Entrez MAP3K10)", "in_short": "as §1"}, "[14]": {"target": "T14, 384 kinases from the human genome (Homo sapiens, UniProt Q16512)", "T14 construct": "purchased Eurofin/DiscoverX", "T14 sequence (Q16512 whole entry)": "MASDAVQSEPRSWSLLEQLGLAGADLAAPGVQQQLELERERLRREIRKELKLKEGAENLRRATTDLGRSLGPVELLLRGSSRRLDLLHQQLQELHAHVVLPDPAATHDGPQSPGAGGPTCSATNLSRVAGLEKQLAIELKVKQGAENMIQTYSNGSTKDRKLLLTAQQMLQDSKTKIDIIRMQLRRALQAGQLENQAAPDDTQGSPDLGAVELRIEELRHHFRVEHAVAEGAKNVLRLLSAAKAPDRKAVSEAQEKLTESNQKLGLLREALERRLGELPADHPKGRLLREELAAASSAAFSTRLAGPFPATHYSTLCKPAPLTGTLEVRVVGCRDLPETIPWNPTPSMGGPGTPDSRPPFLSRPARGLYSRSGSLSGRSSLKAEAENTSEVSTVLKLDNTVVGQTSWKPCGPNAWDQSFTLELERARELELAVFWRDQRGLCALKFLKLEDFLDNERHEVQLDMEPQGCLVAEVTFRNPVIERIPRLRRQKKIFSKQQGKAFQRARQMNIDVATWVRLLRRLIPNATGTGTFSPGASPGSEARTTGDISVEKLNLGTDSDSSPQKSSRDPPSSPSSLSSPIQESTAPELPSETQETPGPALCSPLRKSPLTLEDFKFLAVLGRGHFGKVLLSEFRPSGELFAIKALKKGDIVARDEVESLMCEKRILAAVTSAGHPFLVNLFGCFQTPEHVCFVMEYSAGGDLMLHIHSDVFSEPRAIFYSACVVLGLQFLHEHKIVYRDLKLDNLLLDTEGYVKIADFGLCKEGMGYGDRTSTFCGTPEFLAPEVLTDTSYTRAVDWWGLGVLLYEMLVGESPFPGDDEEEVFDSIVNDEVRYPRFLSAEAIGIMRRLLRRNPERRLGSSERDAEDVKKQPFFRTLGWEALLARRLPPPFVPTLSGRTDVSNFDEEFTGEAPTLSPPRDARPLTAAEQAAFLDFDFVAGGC", "details": "kinase PKN1 (Entrez PKN1)", "in_short": "as §1"}, "[15]": {"target": "T15, 384 kinases from the human genome (Homo sapiens, UniProt P17612)", "T15 construct": "purchased Eurofin/DiscoverX", "details": "kinase PKAC-alpha (Entrez PRKACA)", "in_short": "as §1"}, "[16]": {"target": "T16, 384 kinases from the human genome (Homo sapiens, UniProt Q99558)", "T16 construct": "purchased Eurofin/DiscoverX", "details": "kinase NIK (Entrez MAP3K14)", "in_short": "as §1"}, "[17]": {"target": "T17, 384 kinases from the human genome (Homo sapiens, UniProt P49336)", "T17 construct": "purchased Eurofin/DiscoverX", "T17 sequence (P49336 whole entry)": "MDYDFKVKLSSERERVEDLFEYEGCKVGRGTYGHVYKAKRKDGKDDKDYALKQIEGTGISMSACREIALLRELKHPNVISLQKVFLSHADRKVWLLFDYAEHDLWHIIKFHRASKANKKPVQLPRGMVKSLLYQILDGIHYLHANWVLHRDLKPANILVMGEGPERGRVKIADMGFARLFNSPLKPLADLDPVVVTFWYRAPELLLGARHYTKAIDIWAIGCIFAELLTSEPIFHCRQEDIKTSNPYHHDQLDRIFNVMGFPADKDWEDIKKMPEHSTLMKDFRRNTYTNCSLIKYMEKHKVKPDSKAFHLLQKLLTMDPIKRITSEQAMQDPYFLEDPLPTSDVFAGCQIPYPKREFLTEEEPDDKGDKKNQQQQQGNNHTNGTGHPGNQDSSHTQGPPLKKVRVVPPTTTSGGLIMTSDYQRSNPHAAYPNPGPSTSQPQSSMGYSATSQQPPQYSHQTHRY", "details": "kinase CDK8 (Entrez CDK8)", "in_short": "as §1"}, "[18]": {"target": "T18, 384 kinases from the human genome (Homo sapiens, UniProt Q02156)", "T18 construct": "purchased Eurofin/DiscoverX", "details": "kinase PRKCE (Entrez PRKCE)", "in_short": "as §1"}, "[19]": {"target": "T19, 384 kinases from the human genome (Homo sapiens, UniProt P35626)", "T19 construct": "purchased Eurofin/DiscoverX", "T19 sequence (P35626 whole entry)": "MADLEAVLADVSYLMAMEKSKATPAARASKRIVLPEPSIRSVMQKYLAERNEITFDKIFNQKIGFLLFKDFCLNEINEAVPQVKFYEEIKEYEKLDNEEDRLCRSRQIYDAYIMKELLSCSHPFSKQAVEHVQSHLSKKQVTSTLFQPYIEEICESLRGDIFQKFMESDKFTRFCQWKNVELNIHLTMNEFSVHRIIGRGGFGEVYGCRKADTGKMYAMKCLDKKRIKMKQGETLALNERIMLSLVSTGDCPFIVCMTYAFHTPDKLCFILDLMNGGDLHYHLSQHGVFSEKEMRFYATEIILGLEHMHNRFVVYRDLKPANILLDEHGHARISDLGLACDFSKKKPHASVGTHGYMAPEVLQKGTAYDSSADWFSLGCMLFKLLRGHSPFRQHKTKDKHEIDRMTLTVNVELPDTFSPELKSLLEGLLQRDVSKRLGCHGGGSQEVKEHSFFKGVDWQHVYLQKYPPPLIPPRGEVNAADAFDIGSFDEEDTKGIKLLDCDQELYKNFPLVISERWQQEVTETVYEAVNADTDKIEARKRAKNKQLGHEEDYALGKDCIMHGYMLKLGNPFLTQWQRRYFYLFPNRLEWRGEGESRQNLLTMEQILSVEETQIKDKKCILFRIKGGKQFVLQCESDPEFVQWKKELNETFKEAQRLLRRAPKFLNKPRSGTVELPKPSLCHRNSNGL", "details": "kinase GRK3 (Entrez ADRBK2)", "in_short": "as §1"}, "[20]": {"target": "T20, 384 kinases from the human genome (Homo sapiens, UniProt P53778)", "T20 construct": "purchased Eurofin/DiscoverX", "details": "kinase p38-gamma (Entrez MAPK12)", "in_short": "as §1"}, "[21]": {"target": "T21, 384 kinases from the human genome (Homo sapiens, UniProt Q13523)", "T21 construct": "purchased Eurofin/DiscoverX", "details": "kinase PRP4 (Entrez PRPF4B)", "in_short": "as §1"}, "[22]": {"target": "T22, 384 kinases from the human genome (Homo sapiens, UniProt Q9BYP7)", "T22 construct": "purchased Eurofin/DiscoverX", "details": "kinase WNK3 (Entrez WNK3)", "in_short": "as §1"}, "[23]": {"target": "T23, 384 kinases from the human genome (Homo sapiens, UniProt Q9UPE1)", "T23 construct": "purchased Eurofin/DiscoverX", "details": "kinase SRPK3 (Entrez SRPK3)", "in_short": "as §1"}, "[24]": {"target": "T24, 384 kinases from the human genome (Homo sapiens, UniProt Q8N5S9)", "T24 construct": "purchased Eurofin/DiscoverX", "details": "kinase CAMKK1 (Entrez CAMKK1)", "in_short": "as §1"}, "[25]": {"target": "T25, 384 kinases from the human genome (Homo sapiens, UniProt Q9Y2I7)", "T25 construct": "purchased Eurofin/DiscoverX", "details": "kinase PIKFYVE (Entrez PIKFYVE)", "in_short": "as §1"}, "[26]": {"target": "T26, 384 kinases from the human genome (Homo sapiens, UniProt Q16659)", "T26 construct": "purchased Eurofin/DiscoverX", "details": "kinase ERK3 (Entrez MAPK6)", "in_short": "as §1"}}}
{"smiles": "CC(C)C(=O)N1CCN(c2ccc(NC(=O)c3cc4ccccc4o3)cc2Cl)CC1", "note": "[Compound 21]", "values": [{"measurement": "Percent Control", "setting": "[1]", "value": 55, "unit": "%"}, {"measurement": "Percent Control", "setting": "[2]", "value": 78, "unit": "%"}, {"measurement": "Percent Control", "setting": "[3]", "value": 95, "unit": "%"}, {"measurement": "Percent Control", "setting": "[4]", "value": 72, "unit": "%"}, {"measurement": "Percent Control", "setting": "[5]", "value": 97, "unit": "%"}, {"measurement": "KIT binding to its ligand affected", "setting": "[6]; 10 µM of 21, compared to DMSO (100%)", "value": "more than 90%"}, {"measurement": "Percent Control", "setting": "[6]; kinase KIT (Entrez KIT)", "value": 5.9, "unit": "%"}, {"measurement": "Percent Control", "setting": "[6]; kinase KIT-autoinhibited (Entrez KIT)", "value": 93, "unit": "%"}, {"measurement": "Percent Control", "setting": "[7]", "value": 68, "unit": "%"}, {"measurement": "Percent Control", "setting": "[8]", "value": 95, "unit": "%"}, {"measurement": "Percent Control", "setting": "[9]", "value": 100, "unit": "%"}, {"measurement": "Percent Control", "setting": "[10]", "value": 100, "unit": "%"}, {"measurement": "Percent Control", "setting": "[11]", "value": 94, "unit": "%"}, {"measurement": "Percent Control", "setting": "[12]", "value": 77, "unit": "%"}, {"measurement": "Percent Control", "setting": "[13]", "value": 96, "unit": "%"}, {"measurement": "Percent Control", "setting": "[14]", "value": 94, "unit": "%"}, {"measurement": "Percent Control", "setting": "[15]", "value": 97, "unit": "%"}, {"measurement": "Percent Control", "setting": "[16]", "value": 66, "unit": "%"}, {"measurement": "Percent Control", "setting": "[17]", "value": 100, "unit": "%"}, {"measurement": "Percent Control", "setting": "[18]", "value": 99, "unit": "%"}, {"measurement": "Percent Control", "setting": "[19]", "value": 100, "unit": "%"}, {"measurement": "Percent Control", "setting": "[20]", "value": 100, "unit": "%"}, {"measurement": "Percent Control", "setting": "[21]", "value": 100, "unit": "%"}, {"measurement": "Percent Control", "setting": "[22]", "value": 90, "unit": "%"}, {"measurement": "Percent Control", "setting": "[23]", "value": 100, "unit": "%"}, {"measurement": "Percent Control", "setting": "[24]", "value": 100, "unit": "%"}, {"measurement": "Percent Control", "setting": "[25]", "value": 61, "unit": "%"}, {"measurement": "Percent Control", "setting": "[26]", "value": 90, "unit": "%"}]}
